Experimental data published in patent US20230027620A1, “PENTAPEPTIDE AND METHODS OF USE THEREOF” (THE BOARD OF TRUSTEES OF THE UNIVERSITY OF ILLINOIS, priority 2019, published 2023).
“Also recorded” adds a separate entry of the source.

Columns and labels:
[1] = tested on: corneal epithelial wound in C57BLl6J mice; assay: Murine corneal epithelial injury (wound healing) model; type: in vivo
Description: Wounded areas were treated with Hst5, SHRGY (SEQ ID NO:2) or SP1 peptides (n=7 for each group), each tested at 80 μM concentration. Wound areas at multiple time points were measured using Image J software. […] Statistical significance was determined by a two-way ANOVA with Bonferroni post-hoc test. **P<0.01, ***P<0.001. % Wound area=(Wound area at time X/Wound area at time 0)×100.
Wound Healing Assay. Corneal wounding experiments in mice were conducted in compliance with the Association for Research in Vision and Ophthalmology (ARVO) Statement for the Use of Animals in Ophthalmic and Vision Research. The protocol was approved by the Animal Care & Use Committee of the University of Illinois at Chicago. Twelve-to-nineteen week old C57BLl6J (Jackson Laboratory, Bar Harbor, Me.) mice were anesthetized with intraperitoneal injection of ketamine (100 mg/kg) and xylazine (5 mg/kg). After applying two drops of topical 0.5% proparacaine, a 2.0-mm area of the central epithelium was demarcated using 2-mm disposable biopsy punch and removed by an AlgerBrush II (The Alger Company, Lago Vista, Tex.). In the treatment (n=7) or the control (n=7) group, Histatin=5 (80 μM), SHRGY peptide (SEQ ID NO:2; 80 μM), or SP1 (80 μM) was applied to the cornea three times a day. At 0, 18 and 24 hours, the corneas were stained with fluorescein (FUL-GLO® Fluorescein Sodium ophthalmic strips, Akorn, Lake forest, Ill.) and photographed using a NIKON FS-2 photo-slit lamp with a NIKON D200 camera (Melville, N.Y.). Wound sizes were compared with the baseline for each mouse and the percentages of wound closure was measured using Image J software.
For immunofluorescence, excised whole mouse eye was snap frozen in optimal cutting temperature compound (OCT; (Fisher Healthcare, Galderma, Calif.). The frozen tissues were cut into 10 μm cryosections (ThermoScientific NX50 Cryomicrotome, Waltham, Mass.) and subsequently were mounted on Superfrost plus slides (Thermofisher, Waltham, Mass.). Slides were fixed for 20 minutes in methanol, washed several times with PBS, stained with DAPI for 2 minutes, and further washed with PBS and deionized water. The slides were then mounted in Fluoro gel with Tris buffer (Electron Microscopy Sciences, Hattfield, Pa.) and observed under a confocal microscope (Zeiss LSM 710 Confocal Microscope, Oberkochen, Germany) using a 10× objective.
Thus, Hst5 and SHRGY (SEQ ID NO:2)-containing peptides can enhance wound healing in a well-vetted model of murine corneal epithelial injury.

HCE cells = assay: Cell sprouting assay, HCE cells embedded in MATRIGEL; type: cell-based, Human; conditions: 50 μM, 72 hours, compared to vehicle only control
Description: Cell Sprouting Assay. A cell sprouting assay was performed using HCE cells in a solubilized basement membrane sold under the tradename MATRIGEL® (reduced and diluted in MEM 1:1; Corning Life Sciences, Tewksbury, Mass.). HCE cells were embedded in the solubilized basement membrane at 5×10^5 cells/10 μL spot. The cell spotted plates were then exposed to reduced serum media (0.5% FBS) (untreated negative control), Hst5 (50 μM), or 10% FBS (positive control). HCE cell migration was then followed with time lapse microscopy and imaged at 4× (Image Express Micro; Molecular Devices, CA). Cell covered area at a given time point was measured using Image J.
A cell sprouting assay using HCE cells embedded as a spot in growth factor reduced solubilized basement membrane sold under the tradename MATRIGEL® (Corning Life Sciences, Tewksbury, Mass.) was used to determine if HST5 could promote epithelial cell migration. […] A standardized scratch assay using the HCLE cell line tested the effects of Hst5 on cell migration. HCLE cells were grown to confluence and mechanically scratched using a pipette tip. Cells were treated with different concentrations (20, 50, 80 and 100 μM) of Hst5 or left untreated as a control. Time-lapse microscopy was performed and wound areas were analyzed at different time points. […] The most significant increase in scratch closure rates was noticed at 50 μM. […]

p-ERK1/2 = assay: Immunofluorescence imaging of p-ERK1/2 in scratched HCE monolayer; type: cell-based, Human; conditions: 80 μM, 45 minutes
Description: Immunofluorescence Imaging. HCE cells were seeded in 8-well chamber slide at 9×10^4 (cells/well) seeding density, and allowed to incubate to form a confluent monolayer. Subsequently, a straight-line scratch mark was made with a sterile P10 pipette tip. The cells were then washed with media to remove cellular debris. Wounded areas were subsequently left untreated or treated with Hst5, SP1 or SP2 at 80 μM concentrations in MEM media with 0.5% FBS for 45 minutes. Cells were then fixed with 4% paraformaldehyde for 30 minutes and permeabilized with 0.1% Triton X-100 for 5 minutes. After washing with PBS, cells were incubated at room temperature for 30 minutes with 5% bovine serum albumin (BSA) and 5% normal goat serum in PBS. Cells were subsequently incubated with primary antibodies diluted in 1% BSA against p-ERK1/2 (1:200) (Cell Signaling, Danver, Mass.) at 4° C. for 16 hours. After three washings with PBS, cells were incubated with fluorescein isothiocyanate-conjugated sheep anti-rabbit IgG antibody (BD Biosciences, San Jose, Calif.) (1:500) diluted in 1% BSA at room temperature for 60 minutes. After extensive washing with PBS, the cells were then stained with 4′,6-diamidino-2-phenylindole (DAPI; (Roche, Mannheim, GE) for 2 minutes for nuclear staining. The cells were mounted in Fluoro gel with Tris buffer (Electron Microscopy Sciences, Hattfield, Pa.) and observed under a confocal microscope (Zeiss LSM 710 Confocal Microscope, Oberkochen, Germany) using a 10× objective.
The level of activation/phosphorylation of ERK with and without wounding and with and without Hst5 application were investigated to determine whether the cellular signaling pathways underpinning the pro-migratory effects of Hst5 were similar to those of Hst1 in other epithelial cell types. Wounding causes an increased in phosphorylated form of ERK1/2 (p-ERK1/2). Immunolocalization was used to determine whether Hst5 application to a scratched sheet of epithelium would affect pERK1/2 levels.

Q: DSHAKRHHGYKRKFHEKHHSHRGY [Hst5] was tested. Which “% remaining corneal wound area compared to baseline” value ([1]; 80 μM, 18 hours and 24 hours, compared to SP1, n=7) did it give?
A: statistically significant improvement

Q: And the “corneal wound size, histologic analysis (DAPI cross sections)” value ([1]; compared to SP1-treated controls)?
A: reductions in corneal wound size

Q: What about the “corneal wound closure rates” value ([1]; topical, 80 μM, three times a day, vs scrambled peptide control SP1) of the same sequence?
A: significant improvement in corneal wound closure rates

Q: What about the “cell migration (cell sprouting)” value (HCE cells) of the same sequence?
A: statistically significant increase in cell migration

Q: And the “pERK1/2 immunolocalization / signal intensity” value (p-ERK1/2)?
A: increased signal intensity of phosphorylated ERK1/2; also recorded: elevated immunolocalization of pERK1/2
